Source: the NIST ThermoML archive (doi:10.1016/j.tca.2016.12.010)

Legend:
[1] = refractive index (Na D-line) (dimensionless); conditions: 94.9 kPa, Liquid, (Schmidt +Haensch) refractometer (Model DSR lambda)
[2] = Liquid; for mass density: 94.9 kPa, Vibrating tube method; for vapor or sublimation pressure: Ebulliometric method (Recirculating still)
[3] = xn = mol fraction of the nth substance listed; conditions: 94.9 kPa, Liquid, Vibrating tube method, x2 = 0
[4] = refractive index (Na D-line) (dimensionless); xn = mol fraction of the nth substance listed; conditions: 94.9 kPa, Liquid, (Schmidt +Haensch) refractometer (Model DSR lambda), x2 = 0

C1COCCN1 [tetrahydro-1,4-oxazine]
Conditions | mass density, [2] [kg/m3] | refractive index, [1] | vapor or sublimation pressure, [2] [kPa]
293.15 K | 999.54 | 1.45453 | –
303.15 K | 989.89 | 1.45031 | –
313.15 K | 979.82 | 1.44574 | –
323.15 K | 969.78 | 1.44113 | –
333.15 K | 959.74 | 1.43562 | –
343.91 K | – | – | 13.32
372.25 K | – | – | 39.99
387.57 K | – | – | 66.66
398.92 K | – | – | 94.9

CCCCCCCCCCO [decan-1-ol]
Conditions | mass density, [2] [kg/m3] | refractive index, [1] | vapor or sublimation pressure, [2] [kPa]
293.15 K | 830.01 | 1.43711 | –
303.15 K | 823.54 | 1.43332 | –
313.15 K | 816.13 | 1.42949 | –
323.15 K | 808.84 | 1.42564 | –
333.15 K | 801.43 | 1.42189 | –
436.56 K | – | – | 13.32
469.52 K | – | – | 39.99
487.85 K | – | – | 66.66
501.05 K | – | – | 94.9

CCCCCCCCO [octan-1-ol]
Conditions | mass density, [2] [kg/m3] | refractive index, [1]
293.15 K | 825.57 | 1.4295
298.15 K | 821.9 | 1.42748
303.15 K | 818.08 | 1.42561
308.15 K | 814.31 | 1.42369
313.15 K | 811.09 | 1.42169
318.15 K | 807.7 | 1.41973
323.15 K | 804.05 | 1.41783
333.15 K | 796.88 | 1.41407

CCCCCCCCCCO [decan-1-ol] + C1COCCN1
Conditions | mass density, 293.15 K [kg/m3] | mass density, 303.15 K [kg/m3] | mass density, 313.15 K [kg/m3] | mass density, 323.15 K [kg/m3] | mass density, 333.15 K [kg/m3] | refractive index, 293.15 K | refractive index, 303.15 K | refractive index, 313.15 K | refractive index, 323.15 K | refractive index, 333.15 K
[3] | 830.01 | 823.54 | 816.13 | 808.84 | 801.43 | – | – | – | – | –
[4] | – | – | – | – | – | 1.43711 | 1.43332 | 1.42949 | 1.42564 | 1.42189

Cc1ccccc1 [toluene] + CCCCCCCCO
Conditions | mass density, [3] [kg/m3] | refractive index, [4]
293.15 K | 866.68 | 1.49666
298.15 K | 861.74 | 1.49386
303.15 K | 857.39 | 1.49193
308.15 K | 851.69 | 1.48821
313.15 K | 847.82 | 1.48536
318.15 K | 842.88 | 1.48249
323.15 K | 838.42 | 1.47968
333.15 K | 828.94 | 1.47401

Cc1ccccc1 [toluene]
Conditions | mass density, [2] [kg/m3] | refractive index, [1]
293.15 K | 866.68 | 1.49666
298.15 K | 861.74 | 1.49386
303.15 K | 857.39 | 1.49193
308.15 K | 851.69 | 1.48821
313.15 K | 847.82 | 1.48536
318.15 K | 842.88 | 1.48249
323.15 K | 838.42 | 1.47968
333.15 K | 828.94 | 1.47401
